From ChEMBL document CHEMBL4804284

How the values were obtained:
Design in all cases: scale not given: the % may be the effect or the level left
[1] = biological target: Maternal embryonic leucine zipper kinase (Homo sapiens) (UniProt Q14680); experiment: Inhibition of DNA-tagged human MELK assessed as percent of control at 50000 nM by qPCR analysis relative to control
[2] = biological target: Serine/threonine-protein kinase MRCK gamma (Homo sapiens) (UniProt Q6DT37); experiment: Inhibition of DNA-tagged human DMPK2 assessed as percent of control at 50000 nM by qPCR analysis relative to control
[3] = biological target: Serine/threonine-protein kinase/endoribonuclease IRE1 (Homo sapiens) (UniProt O75460); experiment: Inhibition of DNA-tagged human ERN1 assessed as percent of control at 50000 nM by qPCR analysis relative to control
[4] = biological target: Tyrosine-protein kinase Mer (Homo sapiens) (UniProt Q12866); experiment: Inhibition of DNA-tagged human MERTK assessed as percent of control at 50000 nM by qPCR analysis relative to control
[5] = biological target: Serine/threonine-protein kinase D2 (Homo sapiens) (UniProt Q9BZL6); experiment: Inhibition of DNA-tagged human PRKD2 assessed as percent of control at 50000 nM by qPCR analysis relative to control
[6] = biological target: Serine/threonine-protein kinase Nek2 (Homo sapiens) (UniProt P51955); experiment: Inhibition of DNA-tagged human NEK2 assessed as percent of control at 50000 nM by qPCR analysis relative to control
[7] = system: Tyrosine-protein kinase ABL1 (Homo sapiens), P00519 [UNDEFINED MUTATION]; experiment: Inhibition of DNA-tagged non-phosphorylated human ABL1 […] mutant assessed as percent of control at 50000 nM by qPCR analysis relative to control
Chain of Tyrosine-protein kinase ABL1 (Homo sapiens), P00519 [UNDEFINED MUTATION] (P00519 whole entry, looked up, change not shown): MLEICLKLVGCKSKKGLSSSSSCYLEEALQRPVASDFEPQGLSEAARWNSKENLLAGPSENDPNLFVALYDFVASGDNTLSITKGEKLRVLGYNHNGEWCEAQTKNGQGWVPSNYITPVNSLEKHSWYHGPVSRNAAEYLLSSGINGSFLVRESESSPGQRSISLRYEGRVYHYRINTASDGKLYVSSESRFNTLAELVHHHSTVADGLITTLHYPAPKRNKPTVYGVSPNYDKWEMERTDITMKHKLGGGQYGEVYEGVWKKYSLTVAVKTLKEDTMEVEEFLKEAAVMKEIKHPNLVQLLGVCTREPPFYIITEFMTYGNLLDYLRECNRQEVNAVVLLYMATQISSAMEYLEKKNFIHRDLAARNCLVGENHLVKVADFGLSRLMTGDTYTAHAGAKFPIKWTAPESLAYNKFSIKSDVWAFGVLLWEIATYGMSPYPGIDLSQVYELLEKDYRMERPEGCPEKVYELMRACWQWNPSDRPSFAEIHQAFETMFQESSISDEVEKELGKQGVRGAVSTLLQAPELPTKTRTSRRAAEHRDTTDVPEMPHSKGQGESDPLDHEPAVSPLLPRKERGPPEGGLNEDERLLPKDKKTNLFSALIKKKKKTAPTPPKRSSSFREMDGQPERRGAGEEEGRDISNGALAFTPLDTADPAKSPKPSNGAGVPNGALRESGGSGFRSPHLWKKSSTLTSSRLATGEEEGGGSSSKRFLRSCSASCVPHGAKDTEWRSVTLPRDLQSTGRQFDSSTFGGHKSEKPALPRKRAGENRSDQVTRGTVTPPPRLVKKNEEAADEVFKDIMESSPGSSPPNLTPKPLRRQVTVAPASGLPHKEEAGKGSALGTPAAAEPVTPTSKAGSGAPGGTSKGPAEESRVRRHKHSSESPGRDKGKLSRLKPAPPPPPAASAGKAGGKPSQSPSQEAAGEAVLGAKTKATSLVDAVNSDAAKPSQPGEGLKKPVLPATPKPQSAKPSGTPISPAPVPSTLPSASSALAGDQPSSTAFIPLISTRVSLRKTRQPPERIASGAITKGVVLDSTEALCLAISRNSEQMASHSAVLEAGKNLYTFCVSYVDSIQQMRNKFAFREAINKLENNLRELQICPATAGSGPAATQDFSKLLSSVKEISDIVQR

[8] = biological target: Bone morphogenetic protein receptor type-1B (Homo sapiens) (UniProt O00238); experiment: Inhibition of DNA-tagged human BMPR1B assessed as percent of control at 50000 nM by qPCR analysis relative to control
[9] = biological target: Interleukin-1 receptor-associated kinase 1 (Homo sapiens) (UniProt P51617); experiment: Inhibition of DNA-tagged human IRAK1 assessed as percent of control at 50000 nM by qPCR analysis relative to control
[10] = biological target: Insulin receptor-related protein (Homo sapiens) (UniProt P14616); experiment: Inhibition of DNA-tagged human INSRR assessed as percent of control at 50000 nM by qPCR analysis relative to control
[11] = biological target: Ephrin type-A receptor 6 (Homo sapiens) (UniProt Q9UF33); experiment: Inhibition of DNA-tagged human EPHA6 assessed as percent of control at 50000 nM by qPCR analysis relative to control
Chain of Ephrin type-A receptor 6 (Homo sapiens) (Q9UF33 whole entry): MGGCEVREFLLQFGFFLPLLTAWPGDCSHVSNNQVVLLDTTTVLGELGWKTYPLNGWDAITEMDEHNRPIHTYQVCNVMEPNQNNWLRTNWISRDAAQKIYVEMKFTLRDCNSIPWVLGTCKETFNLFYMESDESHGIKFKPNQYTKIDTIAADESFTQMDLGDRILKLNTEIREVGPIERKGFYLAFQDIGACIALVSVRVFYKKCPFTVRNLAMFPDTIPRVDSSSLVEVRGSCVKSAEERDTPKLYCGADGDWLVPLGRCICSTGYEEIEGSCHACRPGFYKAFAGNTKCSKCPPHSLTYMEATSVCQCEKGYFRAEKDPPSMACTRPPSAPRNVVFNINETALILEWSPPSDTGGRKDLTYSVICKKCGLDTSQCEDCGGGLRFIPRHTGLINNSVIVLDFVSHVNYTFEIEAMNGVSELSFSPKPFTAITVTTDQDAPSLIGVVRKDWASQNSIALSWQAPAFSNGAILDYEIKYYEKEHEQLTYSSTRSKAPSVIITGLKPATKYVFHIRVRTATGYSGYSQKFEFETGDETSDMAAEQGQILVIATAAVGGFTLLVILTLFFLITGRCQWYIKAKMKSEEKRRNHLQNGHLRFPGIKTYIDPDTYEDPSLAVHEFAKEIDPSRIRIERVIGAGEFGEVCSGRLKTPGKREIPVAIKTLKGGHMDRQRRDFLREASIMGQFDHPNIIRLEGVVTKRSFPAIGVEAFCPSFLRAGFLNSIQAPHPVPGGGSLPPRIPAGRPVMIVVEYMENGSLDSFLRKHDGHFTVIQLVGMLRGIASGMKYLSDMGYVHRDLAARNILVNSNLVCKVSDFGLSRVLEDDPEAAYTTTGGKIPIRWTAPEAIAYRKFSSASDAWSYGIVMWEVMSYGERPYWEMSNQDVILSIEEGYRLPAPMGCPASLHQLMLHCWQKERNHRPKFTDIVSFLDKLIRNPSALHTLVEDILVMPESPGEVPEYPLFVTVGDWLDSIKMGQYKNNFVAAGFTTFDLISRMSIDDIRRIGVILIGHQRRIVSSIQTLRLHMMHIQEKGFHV

[12] = biological target: Serine/threonine-protein kinase pim-2 (Homo sapiens) (UniProt Q9P1W9); experiment: Inhibition of DNA-tagged human PIM2 assessed as percent of control at 50000 nM by qPCR analysis relative to control
Chain of Serine/threonine-protein kinase pim-2 (Homo sapiens) (Q9P1W9 whole entry, looked up): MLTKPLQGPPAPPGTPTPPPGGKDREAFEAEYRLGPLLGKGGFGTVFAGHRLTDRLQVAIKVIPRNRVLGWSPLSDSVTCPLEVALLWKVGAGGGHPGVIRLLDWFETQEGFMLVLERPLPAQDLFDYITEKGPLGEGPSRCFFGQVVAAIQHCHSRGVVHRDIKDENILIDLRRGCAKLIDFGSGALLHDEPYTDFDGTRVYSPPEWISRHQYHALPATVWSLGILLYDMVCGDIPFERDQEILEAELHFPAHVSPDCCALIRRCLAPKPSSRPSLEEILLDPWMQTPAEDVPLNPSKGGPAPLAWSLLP

[13] = biological target: Protein-tyrosine kinase 2-beta (Homo sapiens) (UniProt Q14289); experiment: Inhibition of DNA-tagged human PYK2 assessed as percent of control at 50000 nM by qPCR analysis relative to control
[14] = biological target: Dual specificity mitogen-activated protein kinase kinase 4 (Homo sapiens) (UniProt P45985); experiment: Inhibition of DNA-tagged human MEK4 assessed as percent of control at 50000 nM by qPCR analysis relative to control
[15] = biological target: Receptor-interacting serine/threonine-protein kinase 2 (Homo sapiens) (UniProt O43353); experiment: Inhibition of DNA-tagged human RIPK2 assessed as percent of control at 50000 nM by qPCR analysis relative to control
Chain of Receptor-interacting serine/threonine-protein kinase 2 (Homo sapiens) (O43353 whole entry, the tested form may be a part): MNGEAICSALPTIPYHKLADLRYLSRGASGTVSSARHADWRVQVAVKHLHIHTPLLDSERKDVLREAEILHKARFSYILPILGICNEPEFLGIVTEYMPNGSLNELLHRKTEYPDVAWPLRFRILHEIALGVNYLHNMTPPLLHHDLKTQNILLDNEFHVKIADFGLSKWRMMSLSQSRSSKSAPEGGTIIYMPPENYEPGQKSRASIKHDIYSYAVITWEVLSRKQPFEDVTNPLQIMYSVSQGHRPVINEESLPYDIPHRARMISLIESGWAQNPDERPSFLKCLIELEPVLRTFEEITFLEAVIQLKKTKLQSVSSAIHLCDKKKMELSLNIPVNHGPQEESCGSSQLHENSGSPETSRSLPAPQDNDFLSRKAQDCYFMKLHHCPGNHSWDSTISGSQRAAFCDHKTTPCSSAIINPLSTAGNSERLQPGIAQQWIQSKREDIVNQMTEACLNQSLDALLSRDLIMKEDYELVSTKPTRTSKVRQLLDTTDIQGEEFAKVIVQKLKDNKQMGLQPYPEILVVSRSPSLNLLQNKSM

[16] = biological target: LIM domain kinase 2 (Homo sapiens) (UniProt P53671); experiment: Inhibition of DNA-tagged human LIMK2 assessed as percent of control at 50000 nM by qPCR analysis relative to control
[17] = biological target: Mitogen-activated protein kinase 13 (Homo sapiens) (UniProt O15264); experiment: Inhibition of DNA-tagged human p38-delta assessed as percent of control at 50000 nM by qPCR analysis relative to control
[18] = biological target: Activin receptor type-2A (Homo sapiens) (UniProt P27037); experiment: Inhibition of DNA-tagged human ACVR2A assessed as percent of control at 50000 nM by qPCR analysis relative to control
Chain of Activin receptor type-2A (Homo sapiens) (P27037 whole entry): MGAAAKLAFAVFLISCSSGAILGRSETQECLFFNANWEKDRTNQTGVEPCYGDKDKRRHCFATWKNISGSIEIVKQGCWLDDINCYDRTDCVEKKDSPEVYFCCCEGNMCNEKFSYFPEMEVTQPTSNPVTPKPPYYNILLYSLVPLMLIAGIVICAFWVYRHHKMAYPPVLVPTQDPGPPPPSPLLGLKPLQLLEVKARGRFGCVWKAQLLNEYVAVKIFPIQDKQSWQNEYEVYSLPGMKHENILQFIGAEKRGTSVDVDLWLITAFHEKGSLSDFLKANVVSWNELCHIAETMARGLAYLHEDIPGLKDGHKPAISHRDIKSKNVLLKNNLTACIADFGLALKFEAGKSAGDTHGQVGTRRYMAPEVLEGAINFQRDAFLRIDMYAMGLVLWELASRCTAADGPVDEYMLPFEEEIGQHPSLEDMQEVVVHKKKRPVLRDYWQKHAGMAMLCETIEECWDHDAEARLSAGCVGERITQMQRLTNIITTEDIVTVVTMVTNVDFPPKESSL

[19] = biological target: Mitogen-activated protein kinase 15 (Homo sapiens) (UniProt Q8TD08); experiment: Inhibition of DNA-tagged human ERK8 assessed as percent of control at 50000 nM by qPCR analysis relative to control
[20] = system: Epidermal growth factor receptor (Homo sapiens), P00533 [T790M]; experiment: Inhibition of DNA-tagged human EGFR T790M mutant assessed as percent of control at 50000 nM by qPCR analysis relative to control
[21] = biological target: Serine/threonine-protein kinase VRK2 (Homo sapiens) (UniProt Q86Y07); experiment: Inhibition of DNA-tagged human VRK2 assessed as percent of control at 50000 nM by qPCR analysis relative to control
Chain of Serine/threonine-protein kinase VRK2 (Homo sapiens) (Q86Y07 whole entry): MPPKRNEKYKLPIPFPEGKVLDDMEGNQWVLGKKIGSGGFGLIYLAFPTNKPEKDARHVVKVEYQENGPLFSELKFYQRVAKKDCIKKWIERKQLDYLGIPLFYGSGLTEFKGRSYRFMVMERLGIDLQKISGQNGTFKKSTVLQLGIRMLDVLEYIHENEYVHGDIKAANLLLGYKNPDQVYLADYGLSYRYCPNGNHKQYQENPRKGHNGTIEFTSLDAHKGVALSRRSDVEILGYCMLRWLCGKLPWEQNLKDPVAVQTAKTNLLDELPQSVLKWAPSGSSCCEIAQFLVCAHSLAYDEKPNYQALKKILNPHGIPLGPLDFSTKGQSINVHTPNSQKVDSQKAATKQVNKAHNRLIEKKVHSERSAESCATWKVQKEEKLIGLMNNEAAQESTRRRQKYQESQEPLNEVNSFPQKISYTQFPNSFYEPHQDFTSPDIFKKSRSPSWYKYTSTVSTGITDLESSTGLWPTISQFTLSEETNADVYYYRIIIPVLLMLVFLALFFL

[22] = biological target: Casein kinase II subunit alpha' (Homo sapiens) (UniProt P19784); experiment: Inhibition of DNA-tagged human CSNK2A2 assessed as percent of control at 50000 nM by qPCR analysis relative to control
Chain of Casein kinase II subunit alpha' (Homo sapiens) (P19784 whole entry, looked up): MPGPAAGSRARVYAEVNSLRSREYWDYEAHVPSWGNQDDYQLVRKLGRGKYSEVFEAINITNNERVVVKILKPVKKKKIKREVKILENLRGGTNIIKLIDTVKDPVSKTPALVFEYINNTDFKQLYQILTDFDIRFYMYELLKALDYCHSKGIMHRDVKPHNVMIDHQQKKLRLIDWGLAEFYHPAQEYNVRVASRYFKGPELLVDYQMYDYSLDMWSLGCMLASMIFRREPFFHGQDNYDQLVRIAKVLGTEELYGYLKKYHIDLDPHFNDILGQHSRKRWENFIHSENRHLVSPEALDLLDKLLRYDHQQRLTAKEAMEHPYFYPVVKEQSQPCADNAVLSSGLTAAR

[23] = biological target: Cyclin-dependent kinase 7 (Homo sapiens) (UniProt P50613); experiment: Inhibition of DNA-tagged human CDK7 assessed as percent of control at 50000 nM by qPCR analysis relative to control
[24] = biological target: Cyclin-dependent kinase 9 (Homo sapiens) (UniProt P50750); experiment: Inhibition of DNA-tagged human CDK9 assessed as percent of control at 50000 nM by qPCR analysis relative to control
[25] = biological target: Cyclin-dependent kinase 8 (Homo sapiens) (UniProt P49336); experiment: Inhibition of DNA-tagged human CDK8 assessed as percent of control at 50000 nM by qPCR analysis relative to control
[26] = biological target: Receptor tyrosine-protein kinase erbB-2 (Homo sapiens) (UniProt P04626); experiment: Inhibition of DNA-tagged human ERBB2 assessed as percent of control at 50000 nM by qPCR analysis relative to control
[27] = biological target: LIM domain kinase 1 (Homo sapiens) (UniProt P53667); experiment: Inhibition of DNA-tagged human LIMK1 assessed as percent of control at 50000 nM by qPCR analysis relative to control
[28] = biological target: STE20-like serine/threonine-protein kinase (Homo sapiens) (UniProt Q9H2G2); experiment: Inhibition of DNA-tagged human SLK assessed as percent of control at 50000 nM by qPCR analysis relative to control
[29] = biological target: Tyrosine-protein kinase Fer (Homo sapiens) (UniProt P16591); experiment: Inhibition of DNA-tagged human FER assessed as percent of control at 50000 nM by qPCR analysis relative to control
[30] = system: Epidermal growth factor receptor (Homo sapiens), P00533 [L861Q]; experiment: Inhibition of DNA-tagged human EGFR L861Q mutant assessed as percent of control at 50000 nM by qPCR analysis relative to control

Chain of Maternal embryonic leucine zipper kinase (Homo sapiens) (Q14680 whole entry, looked up): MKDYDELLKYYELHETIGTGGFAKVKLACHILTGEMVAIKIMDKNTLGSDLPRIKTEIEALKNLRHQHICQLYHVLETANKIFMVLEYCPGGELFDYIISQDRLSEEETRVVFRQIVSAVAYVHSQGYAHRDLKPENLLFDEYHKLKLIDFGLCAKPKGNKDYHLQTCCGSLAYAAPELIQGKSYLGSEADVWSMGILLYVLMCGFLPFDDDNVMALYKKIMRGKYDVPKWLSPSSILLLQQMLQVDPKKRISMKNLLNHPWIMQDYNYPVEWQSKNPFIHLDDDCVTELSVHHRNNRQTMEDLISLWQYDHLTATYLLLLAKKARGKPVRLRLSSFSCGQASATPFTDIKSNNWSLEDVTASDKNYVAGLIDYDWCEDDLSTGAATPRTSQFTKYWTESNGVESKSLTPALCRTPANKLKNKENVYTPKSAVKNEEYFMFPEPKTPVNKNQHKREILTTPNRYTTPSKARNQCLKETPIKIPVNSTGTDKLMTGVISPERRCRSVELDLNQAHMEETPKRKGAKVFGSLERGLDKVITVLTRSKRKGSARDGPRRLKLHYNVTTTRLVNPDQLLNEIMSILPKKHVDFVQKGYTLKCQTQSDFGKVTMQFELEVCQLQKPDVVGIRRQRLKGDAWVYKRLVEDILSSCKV

Q: Which results are given for CN1C(=O)/C(=C2/C(=O)Nc3ccccc32)c2ccccc21?
A: Activity [1]: 83%; Activity [2]: 92%; Activity [3]: 83%; Activity [4]: 100%; Activity [5]: 87%; Activity [6]: 100%; Activity [7]: 100%; Activity [8]: 89%; Activity [9]: 64%; Activity [10]: 84%; Activity [11]: 95%; Activity [12]: 100%; Activity [13]: 100%; Activity [14]: 100%; Activity [15]: 100%; Activity [16]: 100%; Activity [17]: 100%; Activity [18]: 99%; Activity [19]: 96%; Activity [20]: 96%; Activity [21]: 79%; Activity [22]: 82%; Activity [23]: 100%; Activity [24]: 84%; Activity [25]: 100%; Activity [26]: 100%; Activity [27]: 84%; Activity [28]: 100%; Activity [29]: 88%; Activity [30]: 83%
